# Entries after “also recorded” stand apart in the source; their conditions may differ.
# Key:
# [1] = Acute toxicity, histology (H&E) of major organs; format: in vivo, mice; conditions: brain, heart, kidney, liver, spleen and lung; after day 15
# Experimental: Optical imaging was performed in nude mice bearing xenograft tumors in vivo to characterize pharmacokinetics and assess toxicity. All experimental procedures were performed in accordance with relevant guidelines and regulations of the University of Michigan, and all animal studies were conducted with approval by the University Committee on the Use and Care of Animals (UCUCA). Animals were housed per guidelines of the Unit for Laboratory Animal Medicine (ULAM).
# [2] = test system: Barrett's neoplasia (HGD and EAC); experiment: Confocal microscopy of human esophageal specimens ex vivo
# Experimental: The fluorescence intensities from the human esophageal specimens were fit according to 4 histological classifications, including squamous (SQ), Barrett's esophagus (BE), high-grade dysplasia (HGD), and esophageal adenocarcinoma (EAC), and used a one-way ANOVA and used Tukey's multiple comparisons. Co-localization of peptide and antibody binding was evaluated using Pearson's correlation coefficient.
# Using confocal microscopy, specific heterodimer binding to Barrett's neoplasia was validated on human specimens ex vivo. Formalin-fixed, paraffin-embedded (FFPE) specimens of human esophagus were obtained from the archived tissue bank in the Department of Pathology, University of Michigan. The tissues were cut into […], deparaffinized, and rehydrated using standard conditions. Two-step acidic and protease-based antigen retrieval was performed. The sections were blocked with protein serum for 10 min at RT followed by rinsing with PBS, and then incubated with the heterodimer (0.5 μM) for ten min in dark conditions at RT. The sections were then washed for three min 3× with PBS and further incubated sequentially with 1:200 dilution of EGFR monoclonal antibody (H11, #MA5-13070, Invitrogen) and 1:500 goat anti-mouse IgG (H+L) AF-568-labeled secondary antibody (#A-11004, Thermo Fisher Scientific), 1:500 dilution of ErbB2 primary antibody (#29D8, rabbit monoclonal antibody #2165S, Cell Signaling Inc), and 1:1000 goat anti-rabbit IgG (H+L) AF-488-labeled secondary antibody (#A11008, Life Technologies Corp). Each antibody was incubated for 1 hour at RT. Sections were washed with TBST 3× and mounted with Prolong Gold reagent containing DAPI (Invitrogen) using #1 cover glass ([…]). Confocal fluorescence microscopy was performed using DAPI, AF488, AF568 and Cy5.5 filter sets. Image quantification was performed by placing 3 boxes with dimensions of 20×20 μm^2 completely within cells found in the epithelium. Mean fluorescence intensities were measured using custom Matlab software (Mathworks). Regions of saturated intensities were avoided.
# [3] = test system: OE33 cells; experiment: Apparent dissociation constant by flow cytometry with OE33 cells; format: binding, human
# Experimental: The apparent dissociation constant (Kd) was measured to assess binding affinity of the heterodimer to OE33 cells. The heterodimer was serially diluted in PBS at concentrations of about 0, 10, 25, 50, 100, and 200 nM with about […] at 4° C. for one hour and washed with cold PBS. The mean fluorescence intensities were measured with flow cytometry (BD LSRII, BD Biosciences). The equilibrium dissociation constant Kd 1/Ka was calculated with a least-squares fit of the data to the nonlinear equation I=(I0+ImaxKa[X])/(I0+Ka[X]). I0 and Imax are the initial and maximum fluorescence intensities, corresponding to no peptide and at saturation, respectively, and [X] represents the concentration of bound peptide. Prism 5.0 software (Graphpad Inc.) was used to calculate Kd and Ka.
# [4] = test system: OE33 cells; experiment: Apparent association time constant by flow cytometry with OE33 cells; format: binding, human
# Experimental: The apparent association time constant (Ka) was measured to assess binding kinetics to OE33 cells. OE33 cells were grown to about 80% confluence in 10 cm dishes, and cells were then detached with PBS-based cell dissociation buffer (Invitrogen). About 10^5 cells were incubated with 1 μM of the heterodimer at 4° C. for different time periods ranging from […]. The cells were centrifuged, washed with cold PBS, and fixed with 4% PFA. Flow cytometry was performed, and the median fluorescence intensity (y) was ratioed with that of OE33 cells without addition of peptide at time points (t) using Flowjo software. The rate constant K was calculated by fitting the data to the first-order kinetics model, y(t)=Imax[1−exp^(−kt)], where Imax=maximum value, using Prism 5.0 software.
# [5] = test system: SKBr3 cells; experiment: Confocal microscopy binding of Cy5.5-labeled heterodimer linker configurations to SKBr3 cells; format: cell-based, human; conditions: linkers E2, Hex, E3, E6, E10
# Source text: The two monomers were combined in a heterodimer configuration using a variable linker designed with either a PEG spacer that ranged in size from 17-74 atoms or a hydrophobic 6-aminohexonic acid linker in the α-, ξ-amino groups of the second lysine. The linker length was varied to determine the optimal spacing between monomers to maximize binding to the intended targets. Using confocal microscopy, binding for each Cy5.5-labeled heterodimer configuration to human breast cancer cells SKBr3 that overexpress both EGFR and ErbB2 was evaluated, FIG. 1B.
# Hydrophilicity was good as well. Western blot analysis was used to show relative EGFR and ErbB2 expression levels, FIG. 1D. Western blot was performed by lysing cells in Pierce® RIPA lysis buffer containing Halt™ protease inhibitor cocktail (#87786, Thermo Scientific) for 30 min on ice. The lysates were centrifuged at 10,000 rpm for 10 min at 4° C. A BSA protein assay kit (#23227, Thermo Scientific) was used to quantify protein concentration in the supernatant. Aliquots of protein (10 μL) were used for electrophoresis on NuPAGE™ 4-12% Bis-Tris gels (#17031471, Invitrogen) followed by electrophoretic transfer onto membranes (#ISEQ00010, Merck Millipore Ltd). […]
# [6] = test system: OE33 human esophageal adenocarcinoma cells; experiment: Confocal microscopy binding of heterodimer versus monomers to OE33 cells; format: cell-based
# [7] = Hydrophilicity of heterodimer; format: physicochemical
substance,measurement,setting,value
"heterodimer of QRHKPRE (SEQ ID NO: 1) and KSPNPRF (SEQ ID NO: 2) with E3 (triethyleneglycol) linker, Cy5.5 label [QRH*-KSP*-E3-Cy5.5]",acute toxicity on histology (H&E),[1],no sign of acute toxicity
same,staining of high-grade dysplasia (HGD) and esophageal adenocarcinoma (EAC),[2]; human specimens ex vivo,increased signal; also recorded: increased staining intensity
same,staining of squamous (SQ) and Barrett's esophagus (BE),[2]; human specimens ex vivo,Minimal fluorescence signal; also recorded: minimal staining
same,mean fluorescence intensity of neoplasia compared with BE and SQ,"[2]; n=31, 8, 23, and 12 specimens of SQ, BE, HGD, EAC",significantly greater mean fluorescence intensity
same,improved binding affinity compared with either monomer alone,[3],2 fold
same,Kd,"[3]; flow cytometry, 4° C.",23 nM
same,apparent association time constant Ka,"[4]; flow cytometry, 1 μM, 4° C.",0.22 min⁻¹
same,apparent association time constant (time),[4]; value in brackets after Ka,4.5 min
same,mean signal among heterodimer linker configurations,[5],largest signal
same,greater fluorescence intensity compared with either monomer alone,[6],3 fold
same,Hydrophilicity,[7],good

# From patent US20250263439A1, “HETERODIMERIC PEPTIDE REAGENTS AND METHODS” (REGENTS OF THE UNIVERSITY OF MICHIGAN, priority 2018, published 2025)
